Experiments:
[1] = test system: D5 region of the human RANKL gene; assay: ChIP analysis of the D5 region of the human RANKL gene in MG-63 cells; format: cell-based
Method: FIG. 14. […] Cells were treated with the indicated inducers for the periods identified and isolated RNA subjected to PCR analysis for Cyp24, RANKL and b-actin. B) 1,25(OH)2D3 induces VDR binding to the conserved D5 region of the human RANKL gene in MG-63 cells. […] Two different primer sets to the human D5 region were used to assess VDR binding. VDR binding was also observed at D3-D1 but not in intervening regions or at the TSS. C) The human D5 region is transcriptionally active in MG-63 cells. […] Luciferase activity was analysed 24 hours later. […] Data are the average of triplicate determinations, SEM.
Input represents DNA abundance prior to precipitation with either antibodies to the VDR or non specific IgG.

[2] = test system: RANKL gene upstream regions D1-D5; assay: ChIP analysis of transcription factor binding to the RANKL gene in ST2 cells; format: cell-based, mouse; conditions: 6 hours
Method: FIG. 4. Confirmation of ChIP/chip data using ChIP. A) Linear arrangement of RANKL locus re-oriented 5′ to 3′ (left to right) indicating the positions of D5 to D1, P2, and P1/TSS. Designation of primer sets used for detection in ChIP is indicated. B) ST2 cells were treated with either vehicle or 1,25(OH)2D3 and then subjected to ChIP using antibodies to VDR, RXR or IgG. Precipitated DNA was evaluated using the primer sets identified in A.
FIG. 5. […] ST2 cells were treated with the above hormones and after 6 hours subjected to ChIP analysis using antibodies to VDR, RXR, GR, C/EBP, β, RNA pol II, and IgG. Precipitated DNA was evaluated for enrichment of the indicated regions of the RANKL gene.
FIG. 10. ChIP analysis of transcription factor binding to RL D5, the TSS and intervening regions of the RANKL locus in response to 1,25(OH)2D3, forskolin and oncostatin M (OSM). ST2 cells were treated for 6 hr with the indicated inducing agents and then subjected to ChIP analysis using antibodies to the indicated factors. Precipitated DNA was analyzed by PCR for enrichment of IS7, D5, IS6 and the TSS of the RANKL gene locus. See text for details of results.
The isolated DNA was then evaluated by PCR using primers as depicted in the diagram seen in FIG. 4a which were designed to amplify small DNA segments within the 5 regions as well as segments located at intervening sites (IS) outside the five regions.
The inventors hypothesized that GC's might perhaps enhance VDR binding to RANKL regulatory regions. […] The inventors focused on the RL-CCL region (D5) and amplified the precipitated DNA using primers to this region of the gene as well as to D4, D3 and TSS and intervening regions. […] The inventors also explored the possibility that C/EBPbeta might similarly participate in the RANKL activation process. C/EBPbeta plays a significant role in the regulation of osteoblastic genes, and is found associated with both 1,25(OH)2D3 and GC target genes.
In addition to 1,25(OH)2D3 and GCs, RANKL expression is also known to be modulated by such factors as PTH, PGE2, the gp130-activating cytokines IL-6 and OSM, as well as IL-1beta and TNFalpha. […] Forskolin was used as substitute for PTH, however, as ST2 cells are deficient in PTH receptor (PTHR). Both PTH/forskolin and PGE2 are known to induce RANKL gene expression via CREB whereas OSM functions via Stat3. […] The inventors therefore explored the possibility that the RL-CCL might represent a focal target for these inducers via either CREB or Stat3 in the RANKL gene locus. ST2 cells were treated with either vehicle, 1,25(OH)2D3, forskolin or OSM for a 6 hour period and then subjected to a ChIP analysis using antibodies to VDR, C/EBPbeta, CREB, phospho-CREB, ATF-2, ATF-4, Stat3, RNA pol II and control IgG. Isolated DNA was then subjected to amplification using primers corresponding to the D5 region (RL-CCL) of the RANKL gene. As controls, the inventors also assessed the extent to which the immunoprecipitations led to the enrichment of DNA at sites surrounding the D5 region of the RANKL gene.

Cyp24 promoter = assay: ChIP of VDR/RXR at Cyp24 promoter in ST2 cells; format: cell-based, mouse; conditions: 10^-7 M, 6 hours
Method: FIG. 3. ChIP/chip analysis of the RANKL gene locus. A) ChIP: ST2 cells were treated with either vehicle or 1,25(OH)2D3 (10^−7 M) and after 6 hours subjected to ChIP using antibodies to VDR, RXR and IgG. Precipitated DNA was analyzed for the presence of either the Cyp24 or the OPN promoter. B) Arrangement of the mouse RANKL gene locus and position of flanking genes. RANKL gene is transcribed on the reverse strand (right to left). C) DNA chip: Precipitated DNA was linearly amplified and then subjected to chip analysis using tiled oligonucleotide arrays containing 50-mers spanning the RANKL gene locus as described in the text. Hybridization data derived from the arrays are indicated in log2 scale across the locus with nucleotide positions on chromosome 14 indicated on the X axis. The first set of two arrays provide linear data comparing IgG (±1,25(OH)2D3) and VDR (±1,25(OH)2D3) over the RANKL upstream regions. The second set of three arrays provides an expanded view of hybridization data comparing VDR (±1,25(OH)2D3), VDR (+1,25(OH)2D3 vs input DNA) and RXR (+1,25(OH)2D3 vs input DNA). VDR/RXR binding regions D1-D5 are tracked by the shading.
As a first step, the inventors treated ST2 cells with either vehicle or 1,25(OH)2D3 for 6 hours, fixed the cells with formalin, and then subjected the cell lysates to ChIP analysis using antibodies to VDR, RXR, and an IgG control. […]

## C=C1/C(=C\C=C2/CCC[C@]3(C)[C@@H]([C@H](C)CCCC(C)(C)O)CC[C@@H]23)C[C@@H](O)C[C@@H]1O [1,25(OH)2D3]
[1]
  RXR binding to the D5 region of the human RANKL gene: also induced to bind
  VDR binding to the D5 region of the human RANKL gene: induced
[2]
  CREB binding to the D5 region: modestly increased CREB association
  RNA pol II recruitment to D1-D5 sites and TSS: recruited
  Stat3 binding to the D5 region: some Stat3 binding can be seen
[2]; ChIP, -16, -22, -60, -69, -77 kb from TSS
  VDR and RXR binding at D1-D5: clearly enriched
[2]; agent alone
  VDR binding to RANKL regulatory regions (D5): induced the binding of the VDR
Cyp24 promoter
  abundance of Cyp24 promoter DNA precipitated with VDR and RXR antibodies: clearly increased the abundance of DNA
